Measurements from publication PMC5642494 (Oncotarget, 2017).
Like-named read-outs stand apart in the source and are kept apart here.

Tests used:
pCTD_s2 or MCL1 = assay: Immunoblotting of CDK9-dependent biomarkers in ZR-75-1, T-47D and MCF7 cells; assay type: cell-based, human; details: MCF7, T-47D, ZR-75-1 cells; 24 hours; highest concentration (20 µM)
Description: Protein lysates were prepared from the cells and analyzed for the expression of various biomarkers by immunoblotting. The biomarkers included phosphor-Rb at serines 807/811,phosphorylation of serine 2 on the C-terminal repeat domain on RNA polymerase II (pCTD) and MCL1. Images of Western blots were cropped to denote the relevant band(s) for clarity. […] Ki-67 positive events were obtained by gating versus background signal.

MDA-MB-361 cells = assay: PI high content imaging of G1 arrest and cell proliferation, MDA-MB-361; assay type: cell-based; details: Homo sapiens, at least 2 DT
Description: (§1) Relative IC50/EC50 values were determined by curve fitting to a four parameter logistic equation: Y = bottom + ((top-bottom)/ (1+exp(HillSlope*(X – LnIC50)), where X is the natural log of dose/concentration, Y is response, decreasing as X increases, top and bottom are plateaus in the same units as Y, lnIC50 is the natural log of potency, in the same log units as X, and HillSlope measures the steepness of the curve. Data were plotted using GraphPad Prism. […]
www.impactjournals.com/oncotarget/ Oncotarget Supplementary Materials
(§2) Preclinical characterization of abemaciclib in hormone receptor […]
Enzyme kinetics of CDK6/cyclin D3 complexes Cells were fixed with para-formaldehyde and Rb phosphorylation at Serine 780 was detected using CDK6/cyclin D3 activity was measured by the a primary mouse anti-Rb (PS780) antibody followed phosphorylation of CTRF using [g-33P] […] Plates were read in an kinase buffer containing 68 mM Hepes at pH 7.5, 6.67 mM Acumen Explorer eX3 (TTP Labtech). […] 10µL of CDK6/cyclin corresponding to 500-530 nm and the percentage of D3 enzyme complex (Millipore 14-519, #D13BP009NA) cells with pRb signal relative to the total PI stained (1 nM final concentration in the assay) was added onto subpopulation was calculated by the instrument’s software a mix of substrate and test compound. […]

EFM-19 cells = assay: PI high content imaging of G1 arrest and cell proliferation, EFM-19; assay type: cell-based; details: Homo sapiens, at least 2 DT
Description: as §1, §2
METHODS High content imaging cell-based assays for monitoring phosphorylation of Rb (ser780), G1 arrest and […]
ATP at 20°C by a secondary goat anti-mouse IgG-Alexa Fluor 488 in a 96-well plate filtration assay format. […] Plates were read in an kinase buffer containing 68 mM Hepes at pH 7.5, 6.67 mM Acumen Explorer eX3 (TTP Labtech). […] 10µL of CDK6/cyclin corresponding to 500-530 nm and the percentage of D3 enzyme complex (Millipore 14-519, #D13BP009NA) cells with pRb signal relative to the total PI stained (1 nM final concentration in the assay) was added onto subpopulation was calculated by the instrument’s software a mix of substrate and test compound. […]
(EDTA) was used to determine the level of background evaluated by measuring PI signal using high content 33P in the absence of enzyme activity. […]

[1] = n = 2, read-out: IC50 2n (G1 arrest)
[2] = n = 2, read-out: IC50 Cell number

IC50 (MDA-MB-361 cells; [1]): 38 ± 2 nM
IC50 (MDA-MB-361 cells; [2]): 45 ± 14 nM
SMILES: CCN1CCN(Cc2ccc(Nc3ncc(F)c(-c4cc(F)c5nc(C)n(C(C)C)c5c4)n3)nc2)CC1 [abemaciclib, Abemaciclib]
levels of pCTD_s2 or MCL1 (pCTD_s2 or MCL1): no changes were observed
IC50 (EFM-19 cells; [1]): 32 ± 21 nM
IC50 (EFM-19 cells; [2]): 19 ± 4 nM
